Measurements as given in PMC12974487, “Inhibition of FicD-mediated AMPylation and deAMPylation by isoprenoid diphosphates” (Proceedings of the National Academy of Sciences of the …, 2026).
Entries after “also recorded” stand apart in the source; their conditions may differ.

Target: T1, VopS (Vibrio parahaemolyticus serotype O3:K6, UniProt Q87P32)
T1 construct: made in house
Test: In vitro AMPylation of GST-CDC42 by VopS
Type: biochemical
Text: Finally, we explored the inhibitory effects of GPP/FPP on other Fido proteins to see if these metabolites could serve as generic inhibitors of Fido domains. To test this specificity, we performed in vitro activity assays with GPP/FPP and two constitutively active Fido proteins from bacteria: VopS from Vibrio parahaemolyticus ([25]) and AvrB from Pseudomonas syringae ([30]). […]
visualization. Min-max scaled RFU values and the first derivatives are plotted as a function of temperature in Graphpad Prism 10.6.1. In Prism, the first derivative values are uniformly nudged by -1 to facilitate presenting RFU values and their first derivatives on the same graph.
To generate dose-response curves, ΔTm, was first calculated by subtracting the Tm of the ’no ligand’ control from the Tm of relevant ligand-containing reactions. ΔTm was then plotted as a function of ligand concentration. Dose-response curves were fit using GraphPad Prism 10.6.1 with the [Agonist] vs. Response – Variable Slope (four parameters) model. […]
Dialyzed proteins were then spun down at 21,000G for 15 minutes at 4C to remove trace insoluble material. The protein concentration was measured spectrophotometrically and then diluted to working concentration with 25mM HEPES pH 7.4/100mM KCl/10% glycerol. […] Integrated data was globally analyzed in SEDPHAT 15.b (12) using a model considering a single class of binding sites. […]

T1 sequence (Q87P32 31-387): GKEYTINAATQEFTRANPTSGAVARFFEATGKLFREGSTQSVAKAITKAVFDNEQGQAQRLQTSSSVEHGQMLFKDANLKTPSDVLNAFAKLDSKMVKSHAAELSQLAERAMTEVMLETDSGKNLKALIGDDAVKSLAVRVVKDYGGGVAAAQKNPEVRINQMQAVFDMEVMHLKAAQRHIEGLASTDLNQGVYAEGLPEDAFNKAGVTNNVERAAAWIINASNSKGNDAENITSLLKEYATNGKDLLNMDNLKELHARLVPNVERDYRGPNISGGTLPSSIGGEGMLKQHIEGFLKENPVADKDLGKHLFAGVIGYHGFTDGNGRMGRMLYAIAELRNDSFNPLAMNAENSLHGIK

Structure (SMILES)	effect on AMPylation activity of VopS
CC(C)=CCC/C(C)=C/CC/C(C)=C/COP(=O)(O)OP(=O)(O)O [FPP, farnesyl-pyrophosphate]	Neither GPP nor FPP affected; also recorded: not inhibited
CC(C)=CCC/C(C)=C/COP(=O)(O)OP(=O)(O)O [GPP, geranyl-pyrophosphate]	Neither GPP nor FPP affected
